# Measurements reported in patent US8492515B2 (priority 2008, dated 2013).
# Square brackets hold non-standard residues; d marks the D form. Peptide text beside a SMILES is read from it. Ac6c = NC1(C(=O)O)CCCCC1
# Legend:
# [1] = assay type: in vitro ADME, CD-1 mice
# Protocol: Female CD-1 mice of 8 weeks were retroorbitally bled and 6 μg A3-APO peptide dissolved in 10 μL phosphate buffered saline (PBS) was immediately added to approximately 100 μL retrieved blood. After 30 min incubation at 37° C., the cells were removed by 10 min centrifugation at 2,000 rpm, 50 μL PBS was added to 50 μL of the plasma, followed by addition of 45 μL of 15% TCA. The rest of the analysis was done as described for the serum stability studies. Control blood was treated identically without A3-APO peptide addition. […] While the double charged ion at 2519 M/z from the serum studies could not be detected, the two serum components at 1798 and 2969 M/z and two new peaks at 2321 and 2577 M/z were present. These latter peptide species correspond to stable early degradation products.
# Ex vivo blood stability studies were repeated on Chex1-Arg20 according to the protocol described above “Stability of Peptide A3-APO in Whole Blood”. […] The only degradation product that could be detected, at about one third of the peak height of the Chex1-Arg20 starting material, was at 2321 M/z, representing a fragment with the C-terminal arginine missing. Apparently this cleavage product is the Chex1-Val19 fragment observed for peptide A3-APO when the stability studies were done in blood ex vivo (see and compare with the lower panel of FIG. 2 and Table 1). […]
# E. coli D31 = settings: full strength Muller-Hinton broth, 16 hours, 37° C.
# Description: (§1) To investigate the activity of the A3-APO metabolites, Chex1-Arg20 single chain unit and an Arg7-Arg20 common cleavage fragment were synthesized and studied for their ability to kill Enterobacteriaceae strains in undiluted Muller-Hinton broth, a true measure of potential clinical viability (Otvos et al., 2005. J. Med. Chem. 48: 5349-5359). The peptides of the invention were made on a CEM Liberty automated synthesizer with standard Fmoc-chemistry. The peptides were detached from the resin with the carboxyl terminus of the C-terminal Arg residue being in the form of an amino amide, —C(O)—NH2 (“Chex1-Arg20-NH2” and “Arg7-Arg20-NH2”), while still in the microwave chamber, and were purified by RP-HPLC. […] The biological studies carried out on chemically synthesized peptides in this example and succeeding examples were carried out on the C-terminal modified versions of the peptides wherein the C-terminal carboxylic acid function was in the form of an amide, —C(O)—NH2. Antibacterial growth inhibition assays were performed using sterile 96-well polypropylene plates (Nunc F96 microtiter plates) in a final volume of 100 μL as described previously (Cudic et al., 2002. Peptides 23: 271-283). The cell concentrations were estimated by measuring the ultraviolet absorbance at 600 nm and applying the formula cfu/mL=A600(3.8×10^8), where cfu is the number of colony-forming units. Briefly, 50 μL of a suspension of midlogarithmic phase bacterial cultures diluted to 5×10^5 cfu/mL in Muller-Hinton broth (MHB) was added to 50 μL of serially diluted peptides also dissolved in MHB. The final peptide concentration was 128 μg/mL. Cultures were then incubated at 37° C., 5% CO2 for 16-20 h without shaking, and growth inhibition was measured by recording the absorbance at 600 nm using a microplate reader. […] The minimal inhibitory concentration indicates the lowest peptide dose where no visible bacterial growth is detected after 16 hours incubation in full strength Muller-Hinton broth at 37° C. The peptide Chex-pyrr-Dap dimer was also included in the study. […] (Cudic et al., 2002. Peptides 23: 271-283).
# E. coli HK179 [2] = settings: HK179, 16 h
# Description: as §1
# E. coli SEQ102 [3] = settings: SEQ102, 16 h
# Description: as §1
# [4] = tested on: Enterobacteriaceae strains
# Description: as §1
# K. pneumoniae HK123 = settings: HK123, 16 h
# Description: as §1
# [5] = tested on: Klebsiella pneumoniae isolates
# Description: as §1
# [6] = tested on: A. baumannii ATCC BBA-1605
# Description: as §1
# (§2) Following the protocol of Example 2, minimal inhibitory concentrations of the Chex1-Arg20 peptide against selected bacteria was determined. […] A3-APO was included for comparison.
# E. coli 045-849 = tested on: E. coli 045-849
# Description: as §1, §2
# E. coli 5770 = tested on: E. coli 5770
# Description: as §1, §2
# E. coli HK131 = tested on: E. coli HK131
# Description: as §1, §2
# E. coli HK179 [7] = tested on: E. coli HK179
# Description: as §1, §2
# E. coli SEQ102 [8] = tested on: E. coli SEQ102
# Description: as §1, §2
# E. coli SOTE40 = tested on: E. coli SOTE40
# Description: as §1, §2
# K. pneumoniae 012-3132 = tested on: K. pneumoniae 012-3132
# Description: as §1, §2
# K. pneumoniae HK 123 = tested on: K. pneumoniae HK 123
# Description: as §1, §2
# K. pneumoniae HK 127 = tested on: K. pneumoniae HK 127
# Description: as §1, §2
# K. pneumoniae HK 186 = tested on: K. pneumoniae HK 186
# Description: as §1, §2
# K. pneumoniae K6 = tested on: K. pneumoniae K6
# Description: as §1, §2
# P. aeruginosa 10 = tested on: P. aeruginosa 10
# Description: as §1, §2
# P. aeruginosa ATCC 39329 = tested on: P. aeruginosa ATCC 39329
# Description: as §1, §2
# [9] = tested on: S. saprophyticus ATCC 15305
# Description: as §1, §2
# [10] = tested on: S. typhimurium ATCC 14028
# Description: as §1, §2
# S. typhimurium G10215 = tested on: S. typhimurium G10215
# Description: as §1, §2
# S. typhimurium S5 = tested on: S. typhimurium S5
# Description: as §1, §2
smiles,measurement,setting,value
"CC(C)C[C@H](NC(=O)[C@H](Cc1ccc(O)cc1)NC(=O)[C@@H]1CCCN1C(=O)[C@H](CCCNC(=N)N)NC(=O)[C@@H]1CCCN1C(=O)[C@H](CCCCN)NC(=O)[C@H](CC(=O)O)NC(=O)[C@@H]1CCCN1C(=O)[C@H](CCCNC(=N)N)NC(=O)C1(N)CCCCC1)C(=O)N1CCC[C@H]1C(=O)N[C@@H](CCCNC(=N)N)C(=O)N1CCC[C@H]1C(=O)N[C@@H](CCCNC(=N)N)C(=O)N1CCC[C@H]1C(=O)N1CCC[C@H]1C(=O)N[C@@H](CCCNC(=N)N)C(=O)N1CCC[C@H]1C(=O)N[C@H](C(=O)N[C@@H](CCCNC(=N)N)C(=O)O)C(C)C [Chex1-Arg20, Chex-Arg-Pro-Asp-Lys-Pro-Arg-Pro-Tyr-Leu-Pro-Arg-Pro-Arg--Pro-Pro-Arg-Pro-Val-Arg] (H-[Ac6c]RPDKPRPYLPRPRPPRPVR-OH; N-terminus and C-terminus assumed)",peak height of the only degradation product (2321 M/z) relative to starting material,[1],about one third
same,MIC against E. coli D31,E. coli D31,8 µg/mL
same,MIC against E. coli HK179,E. coli HK179 [2],2 µg/mL
same,MIC against E. coli SEQ102,E. coli SEQ102 [3],32 µg/mL
same,IC50,[4],100 to 500 nM
same,activity relative to A3-APO in milligram/L terms,[4]; on average,twice as active
same,activity relative to A3-APO in molar terms,[4]; on average,5 times
same,potency in killing resistant bacteria relative to A3-APO,"[4]; overall, Table 3",twice as potent
same,MIC against K. pneumoniae HK123,K. pneumoniae HK123,8 µg/mL
same,minimal bactericidal concentrations (MBC),[5],8 µg/mL
same,"MIC, A. baumannii ATCC BBA-1605",[6],16 µg/mL
same,"MIC, E. coli 045-849",E. coli 045-849,2 µg/mL
same,"MIC, E. coli 5770",E. coli 5770,0.5 µg/mL
same,"MIC, E. coli HK131",E. coli HK131,1 µg/mL
same,"MIC, E. coli HK179",E. coli HK179 [7],1 µg/mL
same,"MIC, E. coli SEQ102",E. coli SEQ102 [8],1 µg/mL
same,"MIC, E. coli SOTE40",E. coli SOTE40,2 µg/mL
same,"MIC, K. pneumoniae 012-3132",K. pneumoniae 012-3132,0.25 µg/mL
same,"MIC, K. pneumoniae HK 123",K. pneumoniae HK 123,2 µg/mL
same,"MIC, K. pneumoniae HK 127",K. pneumoniae HK 127,0.25 µg/mL
same,"MIC, K. pneumoniae HK 186",K. pneumoniae HK 186,0.25 µg/mL
same,"MIC, K. pneumoniae K6",K. pneumoniae K6,2 µg/mL
same,"MIC, P. aeruginosa 10",P. aeruginosa 10,32 µg/mL
same,"MIC, P. aeruginosa ATCC 39329",P. aeruginosa ATCC 39329,32 µg/mL
same,"MIC, S. saprophyticus ATCC 15305",[9],4 µg/mL
same,"MIC, S. typhimurium ATCC 14028",[10],1 µg/mL
same,"MIC, S. typhimurium G10215",S. typhimurium G10215,0.25 µg/mL
same,"MIC, S. typhimurium S5",S. typhimurium S5,0.5 µg/mL
